Measured values from patent US12179400B2, “Multiple-matrix monolithic moulded part for the diffusion of active ingredients and method for obtaining same” (AB7 Innovation S.A.S.U., priority 2017, dated 2024).

What was measured:
Assay type in all cases: physicochemical
[1] = In vitro release profile in plant oil from antiparasitic TPU (EPAMOULD) collar; details: for release profile: bi-injected collar: one matrix 8% permethrin in 5% SANTICIZER 141, other matrix 4% deltamethrin in 22% SANTICIZER 141; for amount released after 15 days: single EPAMOULD matrix with 8% permethrin and 4% deltamethrin, both in 22% SANTICIZER 141
Procedure: 8% permethrin is solubilized in 22% of SANTICIZER 141® Then, 4% deltamethrin is added, before adding the homogeneous mixture in a single EPAMOULD® matrix.
FIG. 3: In vitro release profile in the plant oil from the pest control collar containing 8% permethrin and 4% deltamethrin, both solubilized in 22% SANTICIZER 141®
Therefore, the same amount (8%) of permethrin was solubilized in 5% SANTICIZER® 141 prior to incorporation into a EPAMOULD® matrix as above, in order to obtain a permethrin compound. In parallel, the same quantity of deltamethrin (4%) solubilized in 22% of SANTICIZER® 141 was mixed, prior to incorporation into a EPAMOULD® matrix, in order to obtain a deltamethrin compound.
The two compounds obtained are injected simultaneously in a collar using the bi-injection press as described in Example 1.
FIG. 4: In vitro release profile in plant oil of the antiparasitic collar obtained by bi-injection including a matrix containing 8% of permethrin solubilized in 5% of SANTICIZER 141® and the other matrix containing 4% of deltamethrin dissolved in 22% of SANTICIZER 141®.

[2] = GPC assay of active ingredients (repellent tracers) in EVA collars at T0 after injection and after 7 days of stability at 50° C.; details: for cumulative loss: collar (C1), T0 loss plus loss after 7 days at 50° C.; for Active ingredient loss (%): EVA
Procedure: In a 1 L beaker, 200 g of vitamin F, 160 g of Mentha pulegium essential oil, 31.2 g of eucalyptus essential oil, 8 g of lemongrass essential oil and 0.8 g of geraniol are mixed. The mixture is stirred lightly until a homogeneous liquid mixture is obtained.
3519.2 g of EVA are introduced into a cylindrical mixer preheated to 70° C. Then, the above homogeneous liquid mixture is slowly introduced. The mixture is left to be stirred gently until dry granules are obtained. 80 g of pistachio green dye are added and then mixed for 5 minutes. A compound is obtained consisting of EVA polymers loaded with 11.1% by weight of all the active ingredients combined, or 5.5% by weight of vitamin F and 5.6% by weight of repellents.
The above compound is injected into a collar 60 cm long by 1 cm wide and weighing 25 g.
The collars (C1) thus obtained were analyzed by GPC assay of the active ingredients contained in the matrix at time zero (T0) after injection, then after 7 days of stability at 50° C. in watertight-sealed packaging.
In parallel, by proceeding according to the same protocol, vitamin F was replaced by coconut oil, in the same proportions, then the corresponding collar compound (C2) was injected. The analyses by GPC assay of the collars (C2) gave the results recorded in Table 2. […]

[3] = Release profile at room temperature of active ingredient incorporated at 10% into polymer matrix bracelets; details: for release profile: 10% loading
Procedure: Studies carried out by the inventors have made it possible to prepare the release profiles of limonene as a function of the polymers used, namely PEBA, EVA and the bio-based polyethylene (PE) copolymer. Compounds loaded with 10% limonene were injected in a bracelet.
FIG. 1: release profile at room temperature of limonene incorporated at 10% into different polymer matrices.
10% essential oil of Eucalyptus radiata has been incorporated into an EVA polymer matrix.
FIG. 2: release profile at room temperature of Eucalyptus radiata essential oil incorporated at 10% into an EVA matrix

[4] = collars (C1), 5.5% Vitamin F and 5.6% repellents, at T0 after injection
[5] = collars (C1), 5.5% Vitamin F and 5.6% repellents, at T = 7 days at 50° C., watertight-sealed packaging
[6] = collars (C2), 5.5% coconut and 5.6% repellents, at T0 after injection
[7] = collars (C2), 5.5% coconut and 5.6% repellents, at T = 7 days at 50° C.
[8] = PEBA bracelet loaded with 10% limonene

Structure (SMILES)	cumulative loss [2]	Active ingredient loss (%) [2, 4]	Active ingredient loss (%) [2, 5]	Active ingredient loss (%) [2, 6]	Active ingredient loss (%) [2, 7]	further results
CC1(C)[C@H](C(=O)O[C@H](C#N)c2cccc(Oc3ccccc3)c2)[C@@H]1C=C(Br)Br [deltamethrin]						release profile [1]: substantially similar release profile; amount released after 15 days [1]: 18%
CC(C)=CCC/C(C)=C/CO [Geraniol, geraniol]	36%	6%	30%	0%	0%	Active ingredient loss (%) ([2]; collars (C1), 5.5% Vitamin F and 5.6% repellents, at T0 after injection, listed as geraniol): 6%; Active ingredient loss (%) ([2]; collars (C1), 5.5% Vitamin F and 5.6% repellents, at T = 7 days at 50° C., watertight-sealed packaging, listed as geraniol): 30%
CC(C)=CCCC(C)CCO (centres unmarked) [Citronellol]	27%	7%	20%	3%	0%	Active ingredient loss (%) ([2]; collars (C1), 5.5% Vitamin F and 5.6% repellents, at T0 after injection, listed as citronellol): 7%; Active ingredient loss (%) ([2]; collars (C1), 5.5% Vitamin F and 5.6% repellents, at T = 7 days at 50° C., watertight-sealed packaging, listed as citronellol): 20%; Active ingredient loss (%) ([2]; collars (C2), 5.5% coconut and 5.6% repellents, at T0 after injection, listed as citronellol): 3%
C=C(C)[C@H]1CC=C(C)CC1 [limonene, Limonene]						release profile ([3]; EVA matrix): releases gradually; amount released after 2 days [3, 8]: 70%; time until bracelet empty [3, 8]: 6 days; release profile ([3]; PEBA bracelet): very quickly and in a significant quantity; release profile ([3]; bio-based polyethylene (PE) copolymer bracelet): retains; remaining amount after 10 days ([3]; incorporated at 10% into EVA matrix): 42%
CC1(C)C(C=C(Cl)Cl)C1C(=O)OCc1cccc(Oc2ccccc2)c1 (centres unmarked) [permethrin]						release profile [1]: substantially similar release profile; amount released after 15 days [1]: 52%
CC12CCC(CC1)C(C)(C)O2 [Cineole]	16%	12%	4%	0%	0%	Active ingredient loss (%) ([2]; collars (C1), 5.5% Vitamin F and 5.6% repellents, at T0 after injection, listed as cineole): 12%; Active ingredient loss (%) ([2]; collars (C1), 5.5% Vitamin F and 5.6% repellents, at T = 7 days at 50° C., watertight-sealed packaging, listed as cineole): 4%
CC(C)=C1CC[C@@H](C)CC1=O [Pulegone]		11%	10%	0%	0%	
CC(C)=CCCC(C)CC=O (centres unmarked) [Citronellal]	50%	12%	38%	0%	3%	Active ingredient loss (%) ([2]; collars (C1), 5.5% Vitamin F and 5.6% repellents, at T0 after injection, listed as citronellal): 12%; Active ingredient loss (%) ([2]; collars (C1), 5.5% Vitamin F and 5.6% repellents, at T = 7 days at 50° C., watertight-sealed packaging, listed as citronellal): 38%; Active ingredient loss (%) ([2]; collars (C2), 5.5% coconut and 5.6% repellents, at T = 7 days at 50° C., listed as citronellal): 3%
